Measurements reported in ChEMBL document CHEMBL1130491, “Nonpeptide bradykinin antagonist analogs based on a model of a Sterling-Winthrop nonpeptide bradykinin antagonist overlapped with cyclic hexapeptide bradykinin antagonist peptides” (Bioorg Med Chem Lett, 1997).

What was measured:
[1] = Binding affinity towards human Bradykinin receptor, activity expressed as Kd
Substance-P receptor = Substance-P receptor (Homo sapiens, UniProt P25103); assay: Binding affinity towards Tachykinin receptor 1, activity expressed as Kd
Substance-P receptor, sequence (P25103 whole entry): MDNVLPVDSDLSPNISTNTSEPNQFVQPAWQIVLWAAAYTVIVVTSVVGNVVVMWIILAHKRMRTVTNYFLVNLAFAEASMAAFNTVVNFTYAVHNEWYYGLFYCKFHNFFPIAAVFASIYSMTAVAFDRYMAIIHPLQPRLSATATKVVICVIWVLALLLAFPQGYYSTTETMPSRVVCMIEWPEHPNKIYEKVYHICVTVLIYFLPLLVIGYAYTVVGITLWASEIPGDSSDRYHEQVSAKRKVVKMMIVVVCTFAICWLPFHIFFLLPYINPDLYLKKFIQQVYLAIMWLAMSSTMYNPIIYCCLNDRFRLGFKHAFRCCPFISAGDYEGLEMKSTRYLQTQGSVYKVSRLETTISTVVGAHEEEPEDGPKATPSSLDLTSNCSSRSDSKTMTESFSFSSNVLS

| SMILES | Kd [1] [nM] | Kd (Substance-P receptor) [nM] |
| --- | --- | --- |
| CCCC[P+](CCCC)(CCCC)Cc1ccc(NC(=O)[C@H](Cc2ccc3ccccc3c2)NC(=O)NC2CCCCC2)cc1 | 1600 | 1300 |
| N=C(N)NCc1ccc(NC(=O)[C@@H](Cc2ccc3ccccc3c2)N=C(NC2CCCCC2)NC2CCCCC2)cc1 | 200 | 860 |
| CCCC[N+](CCCC)(CCCC)Cc1ccc(NC(=O)[C@H](Cc2ccc3ccccc3c2)N=C(NC2CCCCC2)NC2CCCCC2)cc1 | 98 | 540 |
| NC(N)=NCCC[C@@H](N)C(=O)NCc1ccc(NC(=O)[C@H](Cc2ccc3ccccc3c2)N=C(NC2CCCCC2)NC2CCCCC2)cc1 | 230 |  |
| NCc1ccc(NC(=O)[C@@H](Cc2ccc3ccccc3c2)N=C(NC2CCCCC2)NC2CCCCC2)cc1 | 450 |  |
| N=C(N)NCc1ccc(NC(=O)[C@H](Cc2ccc3ccccc3c2)N=C(NC2CCCCC2)NC2CCCCC2)cc1 | 330 | 1100 |
| N=C(N)NCCC[C@@H](NC(=O)C12CC3CC(CC(C3)C1)C2)C(=O)NCc1ccc(NC(=O)[C@H](Cc2ccc3ccccc3c2)N=C(NC2CCCCC2)NC2CCCCC2)cc1 | 990 |  |
| NCc1ccc(NC(=O)[C@H](Cc2ccc3ccccc3c2)N=C(NC2CCCCC2)NC2CCCCC2)c(C(=O)O)c1 | 690 | 3800 |
| CCCC[N+](CCCC)(CCCC)Cc1ccc(NC(=O)[C@@H](Cc2ccc3ccccc3c2)N=C(NC2CCCCC2)NC2CCCCC2)cc1 | 79 | 290 |
| CCCC[P+](CCCC)(CCCC)Cc1ccc(NC(=O)[C@@H](Cc2ccc3ccccc3c2)N=C(NC2CCCCC2)NC2CCCCC2)cc1 | 44 | 370 |
| NC(N)=NCCC[C@H](N)C(=O)NCc1ccc(NC(=O)[C@H](Cc2ccc3ccccc3c2)N=C(NC2CCCCC2)NC2CCCCC2)cc1 | 390 | 1500 |
| O=C(Nc1ccc(CO)cc1)[C@@H](Cc1ccc2ccccc2c1)N=C(NC1CCCCC1)NC1CCCCC1 | 1500 |  |
| CC/N=C(\NCC)NCc1ccc(NC(=O)[C@H](Cc2ccc3ccccc3c2)N=C(NC2CCCCC2)NC2CCCCC2)cc1 | 460 | 1800 |
| O=C(Nc1ccc(CO)cc1)[C@H](Cc1ccc2ccccc2c1)N/C(=N/C1CCCCC1)NC1CCCCC1 | 2100 |  |
| NCc1ccc(N(CCC(=O)O)C(=O)[C@H](Cc2ccc3ccccc3c2)N=C(NC2CCCCC2)NC2CCCCC2)cc1 | 1500 |  |
| CCCC[P+](CCCC)(CCCC)Cc1ccc(NC(=O)[C@H](Cc2ccc3ccccc3c2)N=C(NC2CCCCC2)NC2CCCCC2)cc1 | 340 | 670 |
| NCc1ccc(NC(=O)[C@H](Cc2ccc3ccccc3c2)N=C(NC2CCCCC2)NC2CCCCC2)cc1 | 800 | 1300 |
